Experimental data: ChEMBL document CHEMBL1201862, “PubChem BioAssay data set” (2004)
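The compound was tested at five concentrations on cells cultured in 96-well plates, with a 48-hour exposure period. At the GI50, growth is halved.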 Calls of active or inactive are those of the source. Cut-off read from the data, not from the text of the source: active = GI50 up to about 1.1 µM and inactive = higher.

Columns and labels:
Assay in all cases: NCI-60 cell line screen, 48 h
CAKI-1 = tested on: CAKI-1
K562 = tested on: K562
786-0 = tested on: 786-0
RXF 393 = tested on: RXF 393
SNB-75 = tested on: SNB-75
MCF7 = tested on: MCF7
A498 = tested on: A498
HCT-116 = tested on: HCT-116
UACC-62 = tested on: UACC-62
COLO 205 = tested on: COLO 205
MDA-MB-435 = tested on: MDA-MB-435
HT-29 = tested on: HT-29
CCRF-CEM = tested on: CCRF-CEM
NCI-H23 = tested on: NCI-H23
M14 = tested on: M14
OVCAR-5 = tested on: OVCAR-5
SK-OV-3 = tested on: SK-OV-3
SF-268 = tested on: SF-268
TK-10 = tested on: TK-10
T47D = tested on: T47D

Measured: GI50

COc1nc2c(c(=O)[nH]1)N=C(c1ccc(Cl)cc1)CC(c1ccccc1)N2 (stereo unspecified)
inactive: CAKI-1 28.2 µM | K562 28.1 µM | 786-0 37.6 µM | RXF 393 23.9 µM | SNB-75 20.8 µM | MCF7 39 µM | A498 33.3 µM | HCT-116 34.3 µM | UACC-62 20.2 µM | COLO 205 38.8 µM | MDA-MB-435 34 µM | HT-29 34.5 µM | CCRF-CEM 19.1 µM | NCI-H23 49.2 µM | M14 17.3 µM | OVCAR-5 49.9 µM

C=C1C[C@]23CC[C@@H]4C(CO)(CO)CC(=O)C[C@]4(C)[C@@H]2CC[C@H]1C3
inactive: CAKI-1 > 100 µM | SK-OV-3 > 100 µM | K562 > 100 µM | 786-0 > 100 µM | SF-268 > 100 µM | SNB-75 > 100 µM | MCF7 > 100 µM | TK-10 > 100 µM | HCT-116 > 100 µM | UACC-62 > 100 µM | COLO 205 > 100 µM | MDA-MB-435 > 100 µM | HT-29 > 100 µM | CCRF-CEM > 100 µM | NCI-H23 > 100 µM | M14 > 100 µM | OVCAR-5 > 100 µM

CCN(CC)CCC(=O)Nc1ccc2c(c1)C(=O)c1ccc(NC(=O)CCN(CC)CC)cc1C2=O
inactive: CAKI-1 4.43 µM | SK-OV-3 9.73 µM | K562 3.29 µM | 786-0 2.15 µM | RXF 393 2.11 µM | SF-268 5.62 µM | SNB-75 14.2 µM | TK-10 5.01 µM | A498 5.79 µM | HCT-116 2.19 µM | UACC-62 10.4 µM | COLO 205 3.28 µM | HT-29 2.59 µM | CCRF-CEM 3.55 µM | NCI-H23 8.2 µM | M14 13.8 µM | OVCAR-5 11.2 µM

c1cnc2nc3n(c2c1)CSC3
inactive: CAKI-1 > 100 µM | SK-OV-3 > 100 µM | K562 > 100 µM | 786-0 > 100 µM | RXF 393 > 100 µM | SF-268 > 100 µM | SNB-75 > 100 µM | TK-10 > 100 µM | A498 > 100 µM | UACC-62 > 100 µM | COLO 205 > 100 µM | HT-29 > 100 µM | CCRF-CEM > 100 µM | NCI-H23 > 100 µM | M14 > 100 µM | OVCAR-5 > 100 µM

O=C1c2ccccc2C(=O)c2c1c1cc(O)ccc1n2Cc1ccc(Cl)cc1Cl
inactive: CAKI-1 3.9 µM | SK-OV-3 1.75 µM | K562 32.2 µM | 786-0 2.75 µM | RXF 393 2.14 µM | SF-268 12.9 µM | MCF7 4.11 µM | TK-10 9.29 µM | A498 17.2 µM | HCT-116 6.18 µM | UACC-62 7.66 µM | COLO 205 15.1 µM | MDA-MB-435 9.42 µM | HT-29 16.6 µM | CCRF-CEM 4.12 µM | NCI-H23 7.23 µM | M14 15.9 µM | OVCAR-5 1.89 µM

CC1(Cl)C(=O)NC(=O)N([C@H]2C[C@H](O)[C@@H](CO)O2)C1N=[N+]=[N-] (stereo partly specified)
inactive: CAKI-1 > 100 µM | SK-OV-3 > 100 µM | K562 > 100 µM | 786-0 > 100 µM | RXF 393 > 100 µM | SF-268 > 100 µM | SNB-75 > 100 µM | TK-10 > 100 µM | A498 > 100 µM | HCT-116 > 100 µM | UACC-62 > 100 µM | COLO 205 > 100 µM | HT-29 > 100 µM | CCRF-CEM > 100 µM | NCI-H23 > 100 µM | M14 > 100 µM | OVCAR-5 > 100 µM

Cc1ccccc1-n1c2nc(=O)n(C)c(=O)c-2nc2ccccc21
inactive: CAKI-1 24.4 µM | SK-OV-3 36.9 µM | K562 18.2 µM | 786-0 15.8 µM | RXF 393 17.2 µM | SF-268 12.7 µM | SNB-75 20.1 µM | TK-10 12.1 µM | A498 31.8 µM | HCT-116 14.6 µM | UACC-62 3.48 µM | COLO 205 3.56 µM | HT-29 4.24 µM | CCRF-CEM 13.3 µM | NCI-H23 10.1 µM | M14 11 µM | OVCAR-5 20.5 µM

O=S(=O)(O)c1cc(O)c(/N=N/c2ccc3ccccc3c2O)c2ccccc12 [ERIOCHROME BLUE BLACK B]
inactive: CAKI-1 27 µM | SK-OV-3 31.6 µM | K562 18 µM | 786-0 31.4 µM | RXF 393 80.9 µM | SF-268 10.5 µM | SNB-75 16.7 µM | TK-10 66.2 µM | HCT-116 33.4 µM | T47D 15.8 µM | UACC-62 14.8 µM | COLO 205 28.7 µM | MDA-MB-435 1.97 µM | HT-29 24.7 µM | CCRF-CEM 21.9 µM | NCI-H23 15.2 µM | M14 13.3 µM | OVCAR-5 33.3 µM
